Measured values as given in PMC6219668 (Oncotarget, 2018).

Tested on: panel of nearly 500 cancer cell lines
Experiment: Cancer Cell Line Encyclopedia profiling, 3-day CellTiter-Glo
Type: cell-based
Parameters: Amax: unit not given here

`CC(=O)c1c(C)c2cnc(Nc3ccc(N4CCNCC4)cn3)nc2n(C2CCCC2)c1=O` [Palbociclib, reference compound] was tested, and the EC50 (Homo sapiens, P3HR-1) was > 8 µM, the EC50 (Homo sapiens, P31-FUJ) was > 8 µM and the EC50 (Homo sapiens, PANC-03-27) was > 8 µM. For the same compound, the EC50 (Homo sapiens, PLC-PRF-5) was 1.79 µM, the EC50 (Homo sapiens, Panc 02.03) was 1.14 µM and the EC50 (Homo sapiens, Panc 04.03) was > 8 µM. The EC50 (Homo sapiens, Panc1005) was > 8 µM, the EC50 (Homo sapiens, Pfeiffer) was 6.95 µM and the EC50 (Homo sapiens, RL95-2) was > 8 µM. The EC50 (Homo sapiens, RT-112) was 2.29 µM, the EC50 (Homo sapiens, RVH-421) was 0.689 µM and the EC50 (Homo sapiens, Raji) was > 8 µM. For the same compound, the EC50 (Homo sapiens, SAOS-2) was > 8 µM, the EC50 (Homo sapiens, SBC-5) was 1.11 µM and the EC50 (Homo sapiens, SCC-25) was 0.782 µM. For the same compound, the EC50 (Homo sapiens, SCaBER) was > 8 µM, the EC50 (Homo sapiens, SF-126) was > 8 µM and the EC50 (Homo sapiens, SF-295) was > 8 µM. The EC50 (Homo sapiens, SHP77) was > 8 µM, the EC50 (Homo sapiens, SJRH30) was > 8 µM and the EC50 (Homo sapiens, SJSA-1) was > 8 µM. For the same compound, the EC50 (Homo sapiens, SK-BR-3) was > 8 µM, the EC50 (Homo sapiens, SK-CO-1) was > 8 µM and the EC50 (Homo sapiens, SK-ES1) was 6.37 µM. The EC50 (Homo sapiens, SK-HEP1) was 0.516 µM, the EC50 (Homo sapiens, SK-LU-1) was > 8 µM and the EC50 (Homo sapiens, SK-MEL-2) was > 8 µM. For the same compound, the EC50 (Homo sapiens, SK-MEL-5) was > 8 µM, the EC50 (Homo sapiens, SK-MEL-24) was > 8 µM and the EC50 (Homo sapiens, SK-MEL-30) was > 8 µM. For the same compound, the EC50 (Homo sapiens, SK-MM-2) was 2.62 µM, the EC50 (Homo sapiens, SK-N-AS) was 1.11 µM and the EC50 (Homo sapiens, SK-N-DZ) was 2.73 µM. It also gave an EC50 (Homo sapiens, SK-N-SH) of 1.25 µM, an EC50 (Homo sapiens, SK-OV-3) of 2.22 µM and an EC50 (Homo sapiens, SKNBE2) of 4.99 µM. For the same compound, the EC50 (Homo sapiens, SNU1) was > 8 µM, the EC50 (Homo sapiens, SNU-16) was > 8 µM and the EC50 (Homo sapiens, SNU-182) was > 8 µM. For the same compound, the EC50 (Homo sapiens, SNU-423) was 2.01 µM, the EC50 (Homo sapiens, SNU-449) was > 8 µM and the EC50 (Homo sapiens, SNU-C2B) was > 8 µM. The EC50 (Homo sapiens, SU-DHL10) was 3.42 µM, the EC50 (Homo sapiens, SU-DHL-8) was 0.475 µM and the EC50 (Homo sapiens, SU.86.86) was > 8 µM. The EC50 (Homo sapiens, SUP-T1) was > 8 µM, the EC50 (Homo sapiens, SW48) was > 8 µM and the EC50 (Homo sapiens, SW480) was 1.24 µM. The EC50 (Homo sapiens, SW780) was 0.832 µM, the EC50 (Homo sapiens, SW900) was > 8 µM and the EC50 (Homo sapiens, SW1353) was > 8 µM. The EC50 (Homo sapiens, SW1990) was 5.78 µM, the EC50 (Homo sapiens, SW-403) was > 8 µM and the EC50 (Homo sapiens, SW-620) was 2.93 µM. The EC50 (Homo sapiens, T47D) was > 8 µM, the EC50 (Homo sapiens, T98G) was > 8 µM and the EC50 (Homo sapiens, TCC-SUP) was 2.08 µM. The EC50 (Homo sapiens, TOV21G) was > 8 µM, the EC50 (Homo sapiens, TOV112D) was 2.03 µM and the EC50 (Homo sapiens, Toledo) was > 8 µM. The EC50 (Homo sapiens, U2OS) was 3.62 µM, the EC50 (Homo sapiens, U-87 MG) was 2.01 µM and the EC50 (Homo sapiens, U-118-MG) was 0.523 µM. For the same compound, the EC50 (Homo sapiens, U-937) was > 8 µM, the EC50 (Homo sapiens, UACC-812) was > 8 µM and the EC50 (Homo sapiens, UMUC3) was > 8 µM. The EC50 (Homo sapiens, YKG-1) was 7.39 µM, the EC50 (Homo sapiens, ZR-75-30) was > 8 µM and the EC50 (Hs766T) was 1.52 µM. For the same compound, the EC50 (IGR-39) was > 8 µM, the EC50 (JHH-2) was > 8 µM and the EC50 (JHH-4) was > 8 µM. For the same compound, the EC50 (JMSU-1) was 1.32 µM, the EC50 (KE-97) was 2.26 µM and the EC50 (KMRC-1) was > 8 µM. The EC50 (KMS-26) was 1.33 µM, the EC50 (LOU-NH91) was > 8 µM and the EC50 (LUDLU-1) was 0.74 µM. For the same compound, the EC50 (NCI-H322) was > 8 µM, the EC50 (NCI-H1568) was 2.63 µM and the EC50 (NCI-H1915) was > 8 µM. The EC50 (NCI-H2023) was 1.12 µM, the EC50 (NCI-H2172) was > 8 µM and the EC50 (OCUM1) was 1.37 µM. For the same compound, the EC50 (OE21) was 4.75 µM, the EC50 (ONCO-DG-1) was > 8 µM and the EC50 (PK-59) was 1.51 µM. The EC50 (PL45) was > 8 µM, the EC50 (SH-10-TC) was > 8 µM and the EC50 (SUIT-2) was 1.18 µM. For the same compound, the EC50 (SUP-M2) was > 8 µM, the EC50 (SW579) was 1.3 µM and the EC50 (SW1271) was > 8 µM. For the same compound, the EC50 (TC-71) was > 8 µM, the Amax (a172 (central_nervous_system)) was 3.605 and the Amax (a204 (soft_tissue)) was -34.4227. For the same compound, the Amax (a253 (salivary_gland)) was 3.868, the Amax (a375 (skin)) was -26.2658 and the Amax (a2058 (skin)) was 2.616. The Amax (a2780 (ovary)) was -39.663, the Amax (gb1 (central_nervous_system)) was -42.437 and the Amax (gciy (stomach)) was -7.059. For the same compound, the Amax (gct (soft_tissue)) was -52.5722, the Amax (glc82 (lung)) was -19.1977 and the Amax (gms10 (central_nervous_system)) was -27.0424. It also gave an Amax (h4 (central_nervous_system)) of -32.9184, an Amax (hcc15 (lung)) of -12.0125 and an Amax (hcc56 (large_intestine)) of -4.352. The Amax (hcc70 (breast)) was -11.029, the Amax (hcc78 (lung)) was -19.9044 and the Amax (hcc1187 (breast)) was -9.361. The Amax (hcc1569 (breast)) was -39.1174, the Amax (hcc1806 (breast)) was 0.7921 and the Amax (hcc1954 (breast)) was -54.5847. It also gave an Amax (hcc2935 (lung)) of -14.5087, an Amax (hcc4006 (lung)) of -19.6287 and an Amax (hct15 (large_intestine)) of -2.41. The Amax (hct116 (large_intestine)) was 1.94, the Amax (hec1a (endometrium)) was -22.7551 and the Amax (hec1b (endometrium)) was -58.5184. It also gave an Amax (hec59 (endometrium)) of -33.0687, an Amax (hec151 (endometrium)) of -3.536 and an Amax (hec251 (endometrium)) of -0.6256. The Amax (hec265 (endometrium)) was 2.121, the Amax (hel9217 (haematopoietic_and_lymphoid_tissue)) was 11.0391 and the Amax (hep3b217 (liver)) was 6.257. The Amax (hepg2 (liver)) was -38.1063, the Amax (heya8 (ovary)) was -39.168 and the Amax (hgc27 (stomach)) was -60.1752. It also gave an Amax (hh (haematopoietic_and_lymphoid_tissue)) of -43.6309, an Amax (hle (liver)) of -2.411 and an Amax (hlf (liver)) of 2.5318. It also gave an Amax (hmc18 (breast)) of -23.3461, an Amax (hmcb (skin)) of -32.1017 and an Amax (hos (bone)) of -5.005. The Amax (hpac (pancreas)) was -39.6565, the Amax (hs229t (lung)) was -46.3597 and the Amax (hs294t (skin)) was -3.363. It also gave an Amax (hs578t (breast)) of -24.7522, an Amax (hs683 (central_nervous_system)) of -14.5926 and an Amax (hs695t (skin)) of -1.411. It also gave an Amax (hs739t (breast)) of -16.3381, an Amax (hs746t (stomach)) of -17.4326 and an Amax (hs766t (pancreas)) of -19.984. For the same compound, the Amax (hs840t (upper_aerodigestive_tract)) was -48.5098, the Amax (hs852t (skin)) was -23.0246 and the Amax (hs895t (skin)) was -52.8812. The Amax (hs936t (skin)) was -33.7794, the Amax (hs939t (skin)) was -41.6297 and the Amax (hs944t (skin)) was -2.178. For the same compound, the Amax (hsc2 (upper_aerodigestive_tract)) was 2.874, the Amax (ht29 (large_intestine)) was -25.1424 and the Amax (ht144 (skin)) was 4.385. It also gave an Amax (ht1080 (soft_tissue)) of 5.952, an Amax (ht1197 (urinary_tract)) of 6.185 and an Amax (ht1376 (urinary_tract)) of 5.627. The Amax (ht (haematopoietic_and_lymphoid_tissue)) was 15.5049, the Amax (hucct1 (biliary_tract)) was -2.064 and the Amax (huh1 (liver)) was -48.0113. For the same compound, the Amax (hupt3 (pancreas)) was -32.9102, the Amax (hupt4 (pancreas)) was -9.371 and the Amax (hut78 (haematopoietic_and_lymphoid_tissue)) was -6.156. For the same compound, the Amax (ialm (lung)) was 2.617, the Amax (igr37 (skin)) was -4.699 and the Amax (igr39 (skin)) was 3.52. It also gave an Amax (igrov1 (ovary)) of 1.295, an Amax (imr32 (autonomic_ganglia)) of -46.7636 and an Amax (ipc298 (skin)) of -1.835. For the same compound, the Amax (istmes1 (pleura)) was -16.4542, the Amax (istmes2 (pleura)) was -52.8976 and the Amax (j82 (urinary_tract)) was -1.0373. For the same compound, the Amax (jhh2 (liver)) was -0.7698, the Amax (jhh4 (liver)) was 0.2039 and the Amax (jhh6 (liver)) was 2.0754. It also gave an Amax (jhos2 (ovary)) of 7.671, an Amax (jhos4 (ovary)) of 13.7773 and an Amax (jm1 (haematopoietic_and_lymphoid_tissue)) of -48.4258. For the same compound, the Amax (jmsu1 (urinary_tract)) was -46.3166, the Amax (k029ax (skin)) was -20.9241 and the Amax (kals1 (central_nervous_system)) was 3.749. The Amax (karpas299 (haematopoietic_and_lymphoid_tissue)) was -53.2153, the Amax (karpas422 (haematopoietic_and_lymphoid_tissue)) was 0.8347 and the Amax (ke39 (stomach)) was -57.8035. For the same compound, the Amax (ke97 (haematopoietic_and_lymphoid_tissue)) was -62.2019, the Amax (kg1 (haematopoietic_and_lymphoid_tissue)) was 7.475 and the Amax (kle (endometrium)) was -0.3583. For the same compound, the Amax (kmbc2 (urinary_tract)) was -20.7254, the Amax (kmrc1 (kidney)) was -29.7335 and the Amax (kms12bm (haematopoietic_and_lymphoid_tissue)) was -27.7827. It also gave an Amax (kms26 (haematopoietic_and_lymphoid_tissue)) of -78.7112 and an Amax (kns42 (central_nervous_system)) of -28.8816.
